Results: publication PMC7665192, “A natriuretic peptide from Arabidopsis thaliana (AtPNP-A) can modulate catalase 2 activity” (Scientific Reports, 2020)
Positions of bridges follow the written chain, without caps; N, C: chain ends. Residues, ends and D or L forms follow the SMILES beside them. *: point of attachment. Biotin = O=C1N[C@H]2[C@H](CS[C@H]2CCCCC(=O)*)N1

Tests used:
CAT = assay: Total CAT activity in protein extracted from WT seedlings; type: biochemical, Arabidopsis thaliana; details: 1 nM
Procedure: (§1) Enzymatic activity of CAT isozymes and total CAT activities of protein extracted from WT and atpnp-a or cat2-2 mutant lines, when indicated sprayed with 1 nM pAtPNP-A or pScr 20 min before harvesting, were determined zymographically and spectrophotometrically, as described in[56]. Relative quantification of intensity of bands corresponding to different CAT isoforms was performed with ImageJ version 1.48 (https://imagej.nih.gov/ij/). Enzymatic activity of the rCAT2 in the presence of absence of 100 nM rAtPNP-A, pAtPNP-A or pScr were determined with the use of Amplex Red catalase assay kit (Invitrogen) according to the manufacturer’s instructions.
(§2) Figure 3 AtPNP-A directly interacts with CAT2 to modulate its enzymatic activity in vitro. (a) Zymogram depicting changes in the enzymatic activity of CAT isoforms extracted from wild type (WT) or cat2-2 knockout mutant seedlings in response to 1 nM pAtPNP-A or pScr. Densitometric semi-quantification of bands corresponding to CAT2, normalized to the loading control (dark-coloured band on zymogram) for WT samples treated with 1 nM pAtPNP-A or pScr (mean ± SD, Student’s t-test, n = 3, P < 0.05). […] (b) Total CAT activity in protein extracted from WT seedlings assayed with Amplex Red catalase assay kit in the presence of 1 nM pAtPNP-A, rAtPNP-A, or pScr. […] (c) Enzymatic activity of rCAT2 in the presence of 100 nM pAtPNP-A, rAtPNP-A, or pScr.

[1] = system: mitogen-activated protein kinase (MAPK) pathway; assay: MAPK pathway activation; details: data not shown
rCAT2 = assay: Enzymatic activity of rCAT2, Amplex Red catalase assay; type: biochemical, Arabidopsis thaliana; details: 100 nM, Amplex Red catalase assay kit; three independent experiments, P < 0.01
Procedure: as §1, §2

bovine CAT = assay: Isothermal titration calorimetry (ITC); type: binding; details: 100 μM pAtPNP-A as titrant, PBS pH 7.4, 25 °C, 30 injections
Procedure: ITC experiments were undertaken using MicroCal iTC200 (Malvern Panalytical) calorimeter. The titrations were conducted at 25 °C in PBS buffer at pH 7.4, with 100 μM pAtPNP-A used as a titrant. Total number of injections was set at 30, reference power was 11 μcal s^−1, initial delay was 60 s, and stirring speed was 750 rpm.

[2] = system: A. thaliana (Col-0) mesophyll cell protoplasts; assay: Mesophyll cell protoplast swelling (volume); type: cell-based, Arabidopsis thaliana; details: 100 nM peptide or 1 μg mL^−1 rAtPNP-A, 0.4 M mannitol, 20 min, room temperature, n = 50, P < 0.0001
Text: Peptides containing amino acid sequence of the active region of AtPNP-A and corresponding scrambled peptides, having the same amino acid composition but in a randomized order (Fig. 1a), with or without C-terminal biotin tag, were synthesized by GenScript (Piscataway, USA) at the purity level > 95% verified with HPLC and their biological activity was verified as described previously.
Figure 1 Biologically active peptide containing the active region of AtPNP-A protein binds to CAT2. (a) Domain organization of AtPNP-A and the amino acid sequences of C-terminally biotinylated peptides used in affinity chromatography-based experiments—a peptide containing the active site of AtPNP-A (indicated as pAtPNP-A) or the corresponding scrambled peptide (indicated as pScr). Cysteine residues forming a disulfide bond, characteristic to natriuretic peptide (NP)-like molecules, are underlined. SP, signal peptide. (b) Assaying biological activity of the AtPNP-A peptide (pAtPNP-A) and purified recombinant protein (rAtPNP-A). […] In each treatment, 50 randomly selected protoplasts with diameter > 20 µm were included in quantitative analysis (scale bar = 20 µm). Protoplast volume was measured and the data obtained from an exemplar experiment are plotted. […]

[3] = system: receptor perceiving AtPNP-A; details: cited from earlier work
Text: Similarly, identification of novel receptors targeted by an increasing number of peptidic plant hormones discovered in the last few decades[8],[9] is anticipated. One of those, the plant natriuretic peptides (PNPs), are a group of systemically mobile signals[10] that have a role in the maintenance of salt and water balance[11],[12]. An A. thaliana PNP, termed AtPNP-A (At2g18660; Q9ZV52), has been implicated in several physiological processes ranging from the regulation of stomatal aperture, osmoticum-dependent volume changes[13],[14] and modulation of developmental stage- and tissue-specif ...

[4] = system: ERF7, ethylene response factor 7; assay: Yeast two-hybrid (Y2H) screen; type: binding, A. thaliana; details: bait AtPNP-A amino acids 26–130, prey At3g20310.1
Procedure: (§3) The Y2H screen using AtPNP-A as bait was carried out by Dualsystems Biotech AG (Zurich, Switzerland). The bait construct for the screening was made by subcloning the cDNA fragment encoding exported portion of AtPNP-A (amino acids 26 to 130) (Fig. 1a) into the pLexA-DIR vector (Dualsystems Biotech AG). The bait construct was transformed into the strain NMY32 (MATa his3Δ200 trp1-901 leu2-3,112 (lexAop)8-ADE2 LYS2::(lexAop)4-HIS3 URA3::(lexAop)8-lacZ GAL4) using standard procedures. Correct expression of the bait was verified by western blotting of cell extracts using a mouse monoclonal antibody directed against the LexA domain (Dualsystems Biotech AG). The absence of self-activation was verified by co-transformation of the bait together with a control prey and selection on minimal medium lacking tryptophan, leucine, and histidine (selective medium). For the Y2H screen, the bait was co-transformed together with a normalized A. thaliana universal P02403 cDNA library (Dualsystems Biotech AG) into NMY32. 3.1 × 10^6 transformants were screened, yielding 96 transformants that grew on selective medium. […] Library plasmids were isolated from positive clones. The identity of positive interactants was determined by sequencing. DNA sequences translated in all three reading frames and searching against the SwissProt database using the BLASTX algorithm (https://blast.ncbi.nlm.nih.gov).

COL1, constans-like 1 = assay: Yeast two-hybrid (Y2H) screen; type: binding, A. thaliana; details: bait AtPNP-A amino acids 26–130, prey At5g15850.1
Procedure: as §3

PLL4, poltergeist like 4 = assay: Yeast two-hybrid (Y2H) screen; type: binding, A. thaliana; details: bait AtPNP-A amino acids 26–130, prey At2g28890.1
Procedure: as §3

Row | In vitro enzymatic activity of rCAT2 (rCAT2) | Compound | Total CAT activity of protein extracts (CAT; WT seedling protein, Amplex Red kit, mean ± SD, n = 3, P < 0.05) | H2O2 breakdown by WT seedling protein extract (CAT; total protein extracted from WT seedlings, n = 3) | Activation of MAPK pathway [1] | ITC: conformational changes on binding (bovine CAT) | Protoplast swelling response (volume) [2] | Generation of cGMP by receptor upon AtPNP-A binding [3] | Strength of binding [4] | Strength of binding (COL1, constans-like 1) | Strength of binding (PLL4, poltergeist like 4)
1 | significantly enhanced | CC(C)C[C@@H]1NC(=O)[C@H](CC(N)=O)NC(=O)[C@H](CC(N)=O)NC(=O)[C@H](CCCCN)NC(=O)[C@H](C(C)C)NC(=O)CNC(=O)[C@H](C(C)C)NC(=O)[C@H](C(C)C)NC(=O)[C@H](CC(C)C)NC(=O)[C@H]([C@@H](C)O)NC(=O)[C@H](CCC(=O)O)NC(=O)[C@H](CCCNC(=N)N)NC(=O)[C@H](CCC(N)=O)NC(=O)[C@H]([C@@H](C)O)NC(=O)CNC(=O)[C@H](Cc2ccc(O)cc2)NC(=O)[C@@H](NC(=O)[C@H](C)NC(=O)[C@H](CO)NC(=O)[C@H](CCCNC(=N)N)NC(=O)[C@@H](NC(=O)[C@H](Cc2ccc(O)cc2)NC(=O)[C@@H]2CCCN2)[C@@H](C)O)CSSC[C@@H](C(=O)NCC(=O)N[C@@H](CCCNC(=N)N)C(=O)N[C@@H](CCCNC(=N)N)C(=O)N[C@@H](Cc2ccc(O)cc2)C(=O)N[C@@H](CCCNC(=N)N)C(=O)N[C@H](C(=O)N[C@@H](CCCNC(=N)N)C(=O)N[C@@H](CCCCNC(=O)CCCC[C@@H]2SC[C@@H]3NC(=O)N[C@@H]32)C(=O)O)C(C)C)NC(=O)[C@H](C)NC(=O)[C@H](CCCNC(=N)N)NC(=O)CNC(=O)[C@H](CC(N)=O)NC(=O)[C@H](CCC(N)=O)NC(=O)[C@H](Cc2c[nH]c3ccccc23)NC1=O [pAtPNP-A] (H-PYTRSACYGTQRETLVVGVKNNLWQNGRACGRRYRVRK(Biotin)-OH; disulfide 7-30; N-terminus and C-terminus assumed) | elevated total CAT activity | more rapid H2O2 breakdown | does not activate mitogen-activated protein kinase (MAPK) pathway | significant conformational changes occurring as a result of pAtPNP-A binding to bovine CAT | significantly greater than the response elicited by the scrambled peptide (pScr) | – | – | – | –
2 | – | AtPNP-A: An A. thaliana PNP, termed AtPNP-A (At2g18660; Q9ZV52) | – | – | – | – | – | catalyzes generation of cGMP upon binding of AtPNP-A | Strong | Weak | Strong
